From ChEMBL document CHEMBL3137667, “[Drug-induced liver injury; fourteenth updated edition of the bibliographic database of liver injuries and related drugs]” (Gastroenterol Clin Biol, 2004)

Tests used:
[1] = human
[2] = human, serum
[3] = human; remark: listed apart in the source
[4] = human; remark: listed apart in the source
[5] = Highest frequency of acute liver toxicity observed during clinical trials, expressed as a percentage. [column '% AIGUE' in source]; details: human
[6] = Proposed mechanism(s) of liver damage. [column 'MEC' in source]; details: human
[7] = Presence of at least one case with successful reintroduction. [column 'REINT' in source]; details: human
[8] = human; remark: listed apart in the source
[9] = Times to onset, minimal and maximal, observed in the indexed observations. [column 'DELAI' in source]; details: human
[10] = human; remark: listed apart in the source
[11] = Comments (NB not yet translated). [column 'COMMENTAIRES' in source]; details: human
[12] = Highest frequency of moderate liver toxicity observed during clinical trials, expressed as a percentage. [column '% BIOL' in source]; details: human
[13] = human; remark: listed apart in the source
[14] = human, serum; remark: listed apart in the source
[15] = human, serum, 4383 h
[16] = human; remark: listed apart in the source
[17] = human; remark: listed apart in the source
[18] = human; remark: listed apart in the source
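Wherever Hepatotoxicity (association with vascular disease) is given: count of indexed literature references reporting vascular liver injury in humans, e.g. peliosis hepatitis, hepatic veno-occlusive disease or Budd-Chiari syndrome.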
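Wherever Hepatotoxicity (benign tumour) is given: value is a count of indexed literature references citing a benign tumour confirmed by histopathology.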
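Wherever Hepatotoxicity (choleostasis) is given: human cholestatic liver injury, shown by histopathology or by peak ALT or AST elevation over alkaline phosphatase ratio below 2, value counts indexed literature reports.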
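Wherever Hepatotoxicity (chronic liver disease) is given: chronic liver injury confirmed by histopathology or persistently raised serum aminotransferase activity beyond 6 months, value given as the count of indexed literature references.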
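Wherever Hepatotoxicity (cirrhosis) is given: value is a count of indexed literature references reporting cirrhosis confirmed by histopathology.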
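Wherever Hepatotoxicity (cytolytic) is given: human cytolytic liver injury, shown by histopathology or by a ratio above 5 of peak ALT or AST elevation to alkaline phosphatase elevation, value counts indexed references.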
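Wherever Hepatotoxicity (granulomatous hepatitis) is given: value is a count of indexed literature references reporting granulomatous liver disease confirmed by histopathology.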
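Wherever Hepatotoxicity (malignant tumour) is given: malignant tumour confirmed by histopathology, value gives the count of indexed literature references reporting it.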
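Wherever Hepatotoxicity (severe hepatitis) is given: human clinical data: severe hepatitis, meaning potentially life-threatening liver failure or clinically observed cases, the value counts how many indexed literature references report it.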
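Wherever Hepatotoxicity (steatosis) is given: steatosis confirmed by histopathology, value is the count of indexed references.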

Structure (SMILES)	Hepatotoxicity (cirrhosis) [1]	Hepatotoxicity (acute) [2]	Hepatotoxicity (malignant tumour) [3]	Hepatotoxicity (association with vascular disease) [4]	Hepatotoxicity (mechanism) [6]	Hepatotoxicity (successful reintroduction) [7]	Hepatotoxicity (granulomatous hepatitis) [8]	Hepatotoxicity (time to onset) [9]	Hepatotoxicity (benign tumour) [10]	Hepatotoxicity (comment) [11]	Hepatotoxicity (moderate) ([12]; Liver) [%]	Hepatotoxicity (steatosis) [13]	Hepatotoxicity (moderate) [14]	Hepatotoxicity (chronic liver disease) [15]	Hepatotoxicity (cytolytic) [16]	Hepatotoxicity (severe hepatitis) ([17]; Liver)	Hepatotoxicity (choleostasis) [18]	Hepatotoxicity (acute) [5] [%]	Hepatotoxicity (moderate) [12] [%]	Hepatotoxicity (severe hepatitis) [17]	further results
O=C(O)COCCN1CCN(C(c2ccccc2)c2ccc(Cl)cc2)CC1 (centres undefined) [CETIRIZINE]	0	5	0	0	Allergic	yes	0	1 day - 2 years	0	AC_ANTI-MFR1	3.8	0	1	0	4	0	1	–	–	–	Hepatotoxicity (acute) ([5]; Liver): 0%
COc1ccc2c(C(=O)c3ccc(Cl)cc3)c(C)n(CC(=O)O)c2c1 [CLOMETACIN]	9	18	0	0	Allergic	yes	0	1 week - 10 years	0	AC_ANTI-ADN/-ML HLAB8	–	0	6	21	14	–	12	0	0	9	–
CC(=O)N[C@@H](CS)C(=O)O [ACETYLCYSTEINE]	0	1	0	0	Dose-dependant	yes	0	4 days	0	PERICHOLANGITE	–	1	0	0	1	–	0	0	0	0	–
Oc1ncnc2[nH]ncc12 [ALLOPURINOL]	0	47	0	0	Allergic	yes	13	6 days - 5 years	0	CHOLANGITE RC/METHYLDOPA REACTIVATION_HSV6	–	4	14	0	26	–	12	0.1	3.1	12	–
CCc1oc2ccccc2c1C(=O)c1ccc(O)cc1 [BENZARONE]	1	5	0	0	Allergic	yes	0	2 weeks - 2 years	0	AC_ANTI-ML/-N	–	0	0	3	3	–	0	0	0	2	–
C=C[C@H]1C[N@@]2CC[C@H]1C[C@H]2[C@H](O)c1ccnc2ccc(OC)cc12 [QUININE]	0	–	0	0	Allergic	yes	4	< 1 day - 2 years	0	AC_ANTI-N	15.4	0	2	0	3	0	2	–	–	–	–
Clc1ccc(C(c2ccccc2Cl)C(Cl)Cl)cc1 (centres undefined) [MITOTANE]	0	0	0	0	Dose-dependant	yes	0	–	0	INDUCTION_ENZYMATIQUE	–	0	5	0	0	–	0	0	0	0	–
O=C(CCCN1CCC(O)(c2ccc(Cl)cc2)CC1)c1ccc(F)cc1 [HALOPERIDOL]	0	–	0	0	Allergic	yes	0	2 weeks - 5 months	0	RC/FLUPHENAZINE CHOLESTASE_PROLONGEE #CBP	–	0	12	1	4	–	8	0.8	35.1	0	–
C=C[C@H]1C[N@@]2CC[C@H]1C[C@@H]2[C@@H](O)c1ccnc2ccc(OC)cc12 [QUINIDINE]	0	–	0	0	Allergic	yes	11	1 day - 7 months	0	RC/PRAJMALINE	2	0	5	1	12	2	12	–	–	–	–
O=C1OCCN1/N=C/c1ccc([N+](=O)[O-])o1 [FURAZOLIDONE]	0	3	0	–	Allergic	yes	0	–	0	RC/NITROFURANTOINE	–	0	1	0	1	–	3	0	0	0	–
CCCc1cc(=O)[nH]c(=S)[nH]1 [PROPYLTHIOURACIL]	1	–	0	0	–	yes	–	1 day - 1.3 years	0	AC_ANTI-N/-M CHOLESTASE_PROLONGEE	27.8	0	5	4	–	19	–	–	–	–	Hepatotoxicity (mechanism) ([6]; Liver): Allergic, Reactive metabolite; Hepatotoxicity (granulomatous hepatitis) ([8]; Liver): 0; Hepatotoxicity (cytolytic) ([16]; Liver): 31; Hepatotoxicity (choleostasis) ([18]; Liver): 15
COc1cc(Cc2cnc(N)nc2N)cc(OC)c1OC.Cc1cc(NS(=O)(=O)c2ccc(N)cc2)no1 [CO-TRIMOXAZOLE]	0	–	0	0	–	yes	–	2 hours - 2 months	0	RC/CEFADROXIL/SULFASALAZINE #CBP AC_ANTI-ML	53.8	1	46	3	–	11	–	–	–	–	Hepatotoxicity (mechanism) ([6]; Liver): Allergic, Dose-dependant, Toxic Metabolite; Hepatotoxicity (granulomatous hepatitis) ([8]; Liver): 1; Hepatotoxicity (cytolytic) ([16]; Liver): 17; Hepatotoxicity (choleostasis) ([18]; Liver): 35
